Assay results: patent US6590123B2, “Aminobenzoic acid derivatives having anti-tumorigenic activity, methods of making and using the same” (Mount Sinai School of Medicine of New York University, priority 1998, dated 2003)
Converted amounts (≈) assume the structure as drawn.

Columns and labels:
L1210 Leukemia = test: Survival of mice implanted i.p. with L1210 Leukemia; type: in vivo
Description: Both control and treated animals were examined for ascitic tumor burden daily for 35 days.

MOT myocardial cell line = test: Block of mitosis, morphology by microscopy; type: cell-based, rat; set-up: key to Block of Mitosis: +Block of mitosis was observed; −no mitotic blocking
Description: (§1) All cell lines, with the exception of human SP cells, a biphenotypic leukemic cell line (reference 10 & 11), were obtained from the American Tissue Culture Collection (Rockville, Md.) and were cultured under conditions recommended by the vendor. EL4 murine leukemia lymphoma (as suspension) and B16 mouse melanoma (as monolayer) cell lines were cultivated in RPMI-1640 medium supplemented with 10% fetal bovine serum (FBS), penicillin (250 μ/ml) and streptomycin (250 μml); MOT, a non-tumor proliferative myocardial cell line from rat and NIH 3T3, a non-malignant and proliferative fibroblast cell line from mouse were both cultured as monolayers in Dulbecco's Modified Eagle's Medium with 10% heat inactivated calf serum. CEM, a human acute T-cell leukemic cell line, was cultured as a suspension in Iscove's Dulbecco's Medium with 10% heat inactivated fetal calf serum and antibiotics. PC-3 cells, a human prostate cancer line, was cultured as monolayers in RPMI-1640 with 10% FBS. SP cells were cultured in Minimum Eagle's Medium plus 10% FBS. Human peripheral blood lymphocytes (PBL) were isolated from whole blood of healthy individuals by Ficoll-Hypaque gradient method. Isolated PBL were maintained in RPMI-1640 in the presence of 10% homologous plasma at 37° C. All cells were incubated at 37° C. in 5% C02. Cells in exponential growth were used. […]

[1] = tested on: NIH 3T3 fibroblast cell line; test: Block of mitosis, morphology by microscopy; type: cell-based, mouse; set-up: key to Block of Mitosis: +Block of mitosis was observed; −no mitotic blocking
Description: as §1

[2] = tested on: mitotic spindles (β-tubulin) in CEM cells; test: Immunofluorescent detection of mitotic spindles; type: cell-based, human; conditions: for Antimicrotubule: CEM cells, 0.025 μg/ml, immunofluorescent staining
Description: […] After incubation, cells were washed twice in PBS. Cell pellets were resuspended in drug-free medium and incubated for 48 hr at 37° C. Cell viability, morphology, mitotic spindles, cell cycle distribution and apoptosis were determined 24 hr and 48 hr post pulse exposure.
CEM cells incubated in the absence or presence of 3-BAABU were collected and centrifuged in a Cytospin at 700 g for 5 min. The slides were air dried and fixed with methanol for 20 min at −20° C. The slides were incubated in PBS containing. 1% BSA at 37° C. for 30 min. After washing with PBS for 3 min, cells on the slides were covered with 30 μl anti-human β-tubulin monoclonal antibody (4 μg/ml) (Accurate Antibody, Westbury, N.Y.) and placed in a humid chamber at room temperature for 60 min. The slides were washed three times for 3 min each in PBS followed by staining with 10 μl FITC labeled goat anti-mouse antibody (Coulter, Hialeah, Fla.) in a humid chamber at room temperature for 60 min. After washing in, PBS, the immunofluorescent stained cells were visualized under a fluorescence microscope (Model MC 63, Zeiss, Germany).

B16 mouse melanoma [3] = test: Block of mitosis, morphology by microscopy; type: cell-based; set-up: key to Block of Mitosis: +Block of mitosis was observed; −no mitotic blocking
Description: (§2) All cell lines, with the exception of human SP cells, a biphenotypic leukemic cell line (reference 10 & 11), were obtained from the American Tissue Culture Collection (Rockville, Md.) and were cultured under conditions recommended by the vendor. EL4 murine leukemia lymphoma (as suspension) and B16 mouse melanoma (as monolayer) cell lines were cultivated in RPMI-1640 medium supplemented with 10% fetal bovine serum (FBS), penicillin (250 μ/ml) and streptomycin (250 μml); MOT, a non-tumor proliferative myocardial cell line from rat and NIH 3T3, a non-malignant and proliferative fibroblast cell line from mouse were both cultured as monolayers in Dulbecco's Modified Eagle's Medium with 10% heat inactivated calf serum. CEM, a human acute T-cell leukemic cell line, was cultured as a suspension in Iscove's Dulbecco's Medium with 10% heat inactivated fetal calf serum and antibiotics. PC-3 cells, a human prostate cancer line, was cultured as monolayers in RPMI-1640 with 10% FBS. SP cells were cultured in Minimum Eagle's Medium plus 10% FBS. Human peripheral blood lymphocytes (PBL) were isolated from whole blood of healthy individuals by Ficoll-Hypaque gradient method. Isolated PBL were maintained in RPMI-1640 in the presence of 10% homologous plasma at 37° C. All cells were incubated at 37° C. in 5% C02. Cells in exponential growth were used.
(§3) Cell samples on slides were prepared by a Cytospin centrifuge (Shandon Southern Products Ltd, England) at 700 g for 5 min. The slides were air dried, fixed in methanol and stained with Giemsa (Harleco, N.J.) at room temperature for 15 min. Alterations of nuclei, membranes and morphological features were observed by light microscopy. Cells in mitotic phase were recognized by the appearance of their chromosomes dispersed in the cytoplasm, and by the disappearance of nuclear membrane. Apoptotic-cells were identified using previously defined criteria, i.e., shrinkage in cell size, chromatin condensation and fragmentation of the nucleus into discrete masses (references 2 & 3). Necrotic cells were differentiated from apoptotic cells by observing swollen cytoplasm and the disappearance of cell membrane prior to the destruction of the nucleus.

[4] = tested on: Human peripheral blood lymphocytes (PBL); test: Block of mitosis, morphology by microscopy; type: cell-based; set-up: key to Block of Mitosis: +Block of mitosis was observed; −no mitotic blocking
Description: as §2, §3

SP cells [5] = test: Cytotoxicity, ID50 and ID90 by trypan blue exclusion; type: cell-based; conditions: Human MDS, 48 hr
Description: as §1, with “antibiotics.” for “antibiotics. PC-3 cells, a human prostate cancer line, was cultured as monolayers in RPMI-1640 with 10% FBS. SP cells were cultured in Minimum Eagle's Medium plus 10% FBS. Human peripheral blood lymphocytes (PBL) were isolated from whole blood of healthy individuals by Ficoll-Hypaque gradient method. Isolated PBL were maintained in RPMI-1640 in the presence of 10% homologous plasma at 37° C. All cells were incubated at 37° C. in 5% C02. Cells in exponential growth were used.”
(§4) Cells in suspension culture were seeded into 96-well microplates (Falcon, Oxnard, Calif.) at 10^5 cell per well, followed, by treatment with 0-10 μg/ml of the candidate compounds for 48 hr at 37° C. with total volume of 250 μl per well. Cell viability was assessed by trypan blue exclusion.
(§5) The ID50 and ID90 was determined in duplicate in every set of experiments, and each experiment was repeated 3 times under identical conditions. […]

[6] = tested on: EL4 murine leukemia lymphoma; test: as above; type: cell-based; conditions: 48 hr
Description: as §1, with “antibiotics.” for “antibiotics. PC-3 cells, a human prostate cancer line, was cultured as monolayers in RPMI-1640 with 10% FBS. SP cells were cultured in Minimum Eagle's Medium plus 10% FBS. Human peripheral blood lymphocytes (PBL) were isolated from whole blood of healthy individuals by Ficoll-Hypaque gradient method. Isolated PBL were maintained in RPMI-1640 in the presence of 10% homologous plasma at 37° C. All cells were incubated at 37° C. in 5% C02. Cells in exponential growth were used.”
as §4, §5

PC-3 cells [7] = test: Cytotoxicity, ID50 and ID90 (monolayer culture); type: cell-based; conditions: PC-3, Human Prostate Cancer, 48 hr
Description: as §1, with “method.” for “method. Isolated PBL were maintained in RPMI-1640 in the presence of 10% homologous plasma at 37° C. All cells were incubated at 37° C. in 5% C02. Cells in exponential growth were used.”
as §5

B16 mouse melanoma [8] = test: Cytotoxicity, ID50 and ID90 (monolayer culture); type: cell-based; conditions: B16, Murine melanoma, 48 hr
Description: as §1, with “method.” for “method. Isolated PBL were maintained in RPMI-1640 in the presence of 10% homologous plasma at 37° C. All cells were incubated at 37° C. in 5% C02. Cells in exponential growth were used.”
as §5

PC-3 cells [9] = test: Block of mitosis, morphology by microscopy; type: cell-based, human; set-up: key to Block of Mitosis: +Block of mitosis was observed; −no mitotic blocking
Description: as §2, §3

SP cells [10] = test: Block of mitosis, morphology by microscopy; type: cell-based, human; set-up: key to Block of Mitosis: +Block of mitosis was observed; −no mitotic blocking
Description: as §2, §3

With `NC(=O)NC(=O)c1cccc(NC(=O)CBr)c1` [Compound 8, 3-Bromoacetoamido, benzoylurea] the “Survival IL %” value (L1210 Leukemia; 20 mg/kg ip on days 2 & 8) was 44%, the “Survival Mean ± SD” value (L1210 Leukemia; 20 mg/kg ip on days 2 & 8, control 16.5 ± 1.4) was 23.7 ± 4.4 and the “Block of Mitosis” value (MOT myocardial cell line; MOT, Rat myocardiac cells (non-tumor), 37° C. for 48 hr) was “−”. For the same compound, the morphologic effect (MOT myocardial cell line; rat myocardial cells, 1.0 μg/ml, 24 hr at 37° C.) was “no effect”, the “Block of Mitosis” value ([1]; 3T3, Murine fibroblast (non-tumor), 37° C. for 48 hr) was “−” and the morphologic effect ([1]; murine fibroblast cells, 1.0 μg/ml, 24 hr at 37° C.) was “no effect”. For the same compound, the Antimicrotubule ([2]; Continuous Exposure (24 hr; 48 hr in footnote)) was “++++ (++++: >75% cells were affected)”, the Antimicrotubule ([2]; Pulse Exposure (1 hr)) was “++++ (++++: >75% cells were affected)” and the “formation of mitotic spindles, immunofluorescent staining for β-tubulin” value ([2]; mitotic CEM cells arrested by the compound) was “none of them showed positive staining for mitotic spindles or astral microtubules”. The “Block of Mitosis” value (B16 mouse melanoma [3]; B16, Murine melanoma, 37° C. for 48 hr) was “+”, the morphologic effect (B16 mouse melanoma [3]; murine melanoma cells, 0.25 μg/ml, 24 hr at 37° C.) was “induced mitotic arrest” and the “Block of Mitosis” value ([4]; Normal human PBL (non-tumor), 37° C. for 48 hr) was “−”. The morphologic effect ([4]; normal human lymphocytes, 2 μg/ml, 24 hr at 37° C.) was “no effect”, the ID90 (SP cells [5]) was 0.71 ± 0.11 µg/mL (≈ 2.37 µM) and the ID90 [6] was 0.02 ± 0.004 µg/mL (≈ 0.0666 µM). The ID90 (PC-3 cells [7]) was 0.95 ± 0.17 µg/mL (≈ 3.17 µM), the ID90 (B16 mouse melanoma [8]) was 0.76 ± 0.09 µg/mL (≈ 2.53 µM) and the “Block of Mitosis” value (PC-3 cells [9]; PC-3, Human Prostate Cancer, 37° C. for 48 hr) was “+”. For the same compound, the morphologic effect (PC-3 cells [9]; PC-3 human prostate cancer cells, 0.1 μg/ml, 24 hr at 37° C.) was “induced mitotic arrest”, the morphologic effect (SP cells [10]; SP human lymphoid leukemic cells, 0.025 μg/ml, 24 hr at 37° C.) was “induced mitotic arrest” and the “Block of Mitosis” value (SP cells [10]; SP, Human MDS, 37° C. for 48 hr, arrest = mitotic cells >50% vs controls) was “+”.
